Data: patent US10758466B2, “Powder-based cosmetic compositions containing pelargonic acid esters” (Novamont S.p.A., priority 2015, dated 2020)

Tests used:
[1] = Pigments dispersion: wet point and flow point of ester oil; type: physicochemical; settings: for Fp: amount of ester oil needed to reach the flow point; for Fp / Wp: grams per 100 g of pigment; for Wp: amount of ester oil needed to reach the wet point
From the text: Black Iron Oxide particles (CI77499, commercially available as YPC335200 from Yipin) were dispersed in each of the ester oils of the present invention and in ester oil commonly used as cosmetic ingredients. Each sample of powder particles was wetted by the dropwise addition of one ester oil and then vigorously blended using a spatula until the wet point and the flow point were reached.
The wet point is defined as the minimum volume of dispersant solution to produce a soft coherent mass; the further minimum addition of dispersant solution to produce flow or falling off of the homogeneous mass from the vertical blade of a horizontally held spatula determines the flow point.
The amounts of dispersant solution (i.e. ester oil) needed to reach the wet point (Wp) and the flow point (Fp) were recorded and reported in the table below, expressed in grams per 100 g of pigment.

[2] = UV filters dispersion: dispersibility of solid UV filter in ester oils; type: physicochemical; set-up: key: D=homogeneous dispersion; S=sediment deposit; settings: 25° C.; for Filters dispersion t0 1%: 1% TiO2, storage 0 hours; for Filters dispersion t24 1%: 1% TiO2, storage 24 hours; for Filters dispersion t0 10%: 10% TiO2, storage 0 hours; for Filters dispersion t24 10%: 10% TiO2, storage 24 hours
Description: The dispersibility of a solid UV filter in different ester oils was tested using Titania (TiO2, commercially available as Titanio Biossido Anatasio from A.C.E.F.). Various ratios of solute/solvent (1% and 10% TiO2) were prepared under stiffing at 70° C. for 30 minutes. The dispersions were then observed after a storage period of 0 hours (t0) and 24 hours (t24) at ambient temperature (25° C.) to check for the formation of any sediment deposit. Results for each ester are shown in the table below (D=homogeneous dispersion; S=sediment deposit).

| Fp [1] | Wp [1] | less solvent required on the final composition ([1]; from Fp close to Wp, compared with commonly used ester oils) | Filters dispersion t0 1% [2] | Filters dispersion t24 1% [2] | Filters dispersion t0 10% [2] | Filters dispersion t24 10% [2] | SMILES |
| --- | --- | --- | --- | --- | --- | --- | --- |
| 100.00 g | 60.00 g | about 30% | D | D | D | S/D | CCCCCCCCC(=O)OCC(COC(=O)CCCCCCCC)OC(=O)CCCCCCCC [Glycerol tripelargonate] |
| 145.00 g | 50.00 g |  | D | S | D | S | CC(C)CCCCCCOC(=O)CCCCCC(C)C [Isononyl Isononanoate, reference compound] |
| 166.00 g | 61.00 g |  | D | S/D | D | S/D | CCCCCCCCC(=O)OCC(C)(C)COC(=O)CCCCCCCC [Neopentyl glycol dipelargonate] |
| 132.00 g | 62.00 g |  | D | D | D | D | CCCCCCCCC(=O)OCC(COC(=O)CCCCCCCC)(COC(=O)CCCCCCCC)COC(=O)CCCCCCCC [Pentaerythritol tetrapelargonate] |
